From ChEMBL document CHEMBL3425471, “Design, synthesis and biological evaluation of novel pyrazoline-containing derivatives as potential tubulin assembling inhibitors” (Eur J Med Chem, 2015)

Assays:
HepG2 [1] = assay: Cell cycle arrest in human HepG2 cells assessed as accumulation of cells at G1 phase of cell cycle at 0.01 uM after 48 hrs by propidium iodide staining based flow cytometry (reference value: 75.2%); assay type: functional
HepG2 [2] = assay: Induction of apoptosis in human HepG2 cells assessed as necrotic cells at 0.05 uM after 24 hrs by AnnexinV-FITC/PI staining based flow cytometry (reference value: 1.63%); assay type: functional
HepG2 [3] = assay: Cell cycle arrest in human HepG2 cells assessed as accumulation of cells at G1 phase of cell cycle at 0.03 uM after 48 hrs by propidium iodide staining based flow cytometry (reference value: 75.2%); assay type: functional
HepG2 [4] = assay: Induction of apoptosis in human HepG2 cells assessed as early apoptotic cells at 0.05 uM after 24 hrs by AnnexinV-FITC/PI staining based flow cytometry (reference value: 3.89%); assay type: functional
HepG2 [5] = assay: Induction of apoptosis in human HepG2 cells assessed as viable cells at 0.05 uM after 24 hrs by AnnexinV-FITC/PI staining based flow cytometry (reference value: 93.0%); assay type: functional; conditions: HepG2, 24 h, read-out: Activity
HepG2 [6] = assay: Cell cycle arrest in human HepG2 cells assessed as accumulation of cells at S phase of cell cycle at 0.03 uM after 48 hrs by propidium iodide staining based flow cytometry (reference value: 19.71%); assay type: functional
HepG2 [7] = assay: Induction of apoptosis in human HepG2 cells assessed as viable cells at 0.03 uM after 24 hrs by AnnexinV-FITC/PI staining based flow cytometry (reference value: 93.0%); assay type: functional; conditions: HepG2, 24 h, read-out: Activity
HepG2 [8] = assay: Induction of apoptosis in human HepG2 cells assessed as early apoptotic cells at 0.01 uM after 24 hrs by AnnexinV-FITC/PI staining based flow cytometry (reference value: 3.89%); assay type: functional
HepG2 [9] = assay: Cell cycle arrest in human HepG2 cells assessed as accumulation of cells at G2 phase of cell cycle at 0.01 uM after 48 hrs by propidium iodide staining based flow cytometry (reference value: 5.09%); assay type: functional
HepG2 [10] = assay: Cell cycle arrest in human HepG2 cells assessed as accumulation of cells at S phase of cell cycle at 0.05 uM after 48 hrs by propidium iodide staining based flow cytometry (reference value: 19.71%); assay type: functional
HepG2 [11] = assay: cells; conditions: Homo sapiens, HepG2, 24 h
Description: Antiproliferative activity against human HepG2 cells assessed as reduction in cell viability after 24 hrs by MTT assay

HepG2 [12] = assay: Induction of apoptosis in human HepG2 cells assessed as necrotic cells at 0.03 uM after 24 hrs by AnnexinV-FITC/PI staining based flow cytometry (reference value: 1.63%); assay type: functional
HepG2 [13] = assay: Induction of apoptosis in human HepG2 cells assessed as early apoptotic cells at 0.03 uM after 24 hrs by AnnexinV-FITC/PI staining based flow cytometry (reference value: 3.89%); assay type: functional
HepG2 [14] = assay: Induction of apoptosis in human HepG2 cells assessed as viable cells at 0.01 uM after 24 hrs by AnnexinV-FITC/PI staining based flow cytometry (reference value: 93.0%); assay type: functional; conditions: HepG2, 24 h, read-out: Activity
Tubulin = Tubulin (Bos taurus, UniProt Q6B856+Q862L2+Q862F3); assay: Inhibition of bovine brain tubulin polymerization after 20 mins by turbidimetric analysis
HepG2 [15] = assay: Cell cycle arrest in human HepG2 cells assessed as accumulation of cells at S phase of cell cycle at 0.01 uM after 48 hrs by propidium iodide staining based flow cytometry (reference value: 19.71%); assay type: functional
HepG2 [16] = assay: Induction of apoptosis in human HepG2 cells assessed as late apoptotic cells at 0.05 uM after 24 hrs by AnnexinV-FITC/PI staining based flow cytometry (reference value: 1.49%); assay type: functional
HepG2 [17] = assay: Induction of apoptosis in human HepG2 cells assessed as late apoptotic cells at 0.03 uM after 24 hrs by AnnexinV-FITC/PI staining based flow cytometry (reference value: 1.49%); assay type: functional
A549 = assay: cells; conditions: Homo sapiens, A549, 24 h
Description: Antiproliferative activity against human A549 cells assessed as reduction in cell viability after 24 hrs by MTT assay

HepG2 [18] = assay: Induction of apoptosis in human HepG2 cells assessed as late apoptotic cells at 0.01 uM after 24 hrs by AnnexinV-FITC/PI staining based flow cytometry (reference value: 1.49%); assay type: functional
HepG2 [19] = assay: Induction of apoptosis in human HepG2 cells assessed as necrotic cells at 0.01 uM after 24 hrs by AnnexinV-FITC/PI staining based flow cytometry (reference value: 1.63%); assay type: functional
HepG2 [20] = assay: Cell cycle arrest in human HepG2 cells assessed as accumulation of cells at G1 phase of cell cycle at 0.05 uM after 48 hrs by propidium iodide staining based flow cytometry (reference value: 75.2%); assay type: functional
MCF7 = assay: cells; conditions: Homo sapiens, MCF7, 24 h
Description: Antiproliferative activity against human MCF7 cells assessed as reduction in cell viability after 24 hrs by MTT assay

HepG2 [21] = assay: Cell cycle arrest in human HepG2 cells assessed as accumulation of cells at G2 phase of cell cycle at 0.03 uM after 48 hrs by propidium iodide staining based flow cytometry (reference value: 5.09%); assay type: functional
HepG2 [22] = assay: Cell cycle arrest in human HepG2 cells assessed as accumulation of cells at G2 phase of cell cycle at 0.05 uM after 48 hrs by propidium iodide staining based flow cytometry (reference value: 5.09%); assay type: functional

COc1ccc(C2=NN(C(=O)c3cc(OC)c(OC)c(OC)c3)C(c3ccc4c(c3)OCO4)C2)cc1 (centres undefined)
Activity (HepG2 [1]): 68.96% | Activity (HepG2 [2]): 4.86% | Activity (HepG2 [3]): 35.62% | Activity (HepG2 [4]): 13.4% | viability at 0.05 µM (HepG2 [5]): 76.4% | Activity (HepG2 [6]): 14.28% | viability at 0.03 µM (HepG2 [7]): 85% | Activity (HepG2 [8]): 5.12% | Activity (HepG2 [9]): 5.99% | Activity (HepG2 [10]): 13.14% | IC50 (HepG2 [11]): 0.03 µM | Activity (HepG2 [12]): 3.76% | Activity (HepG2 [13]): 8.72% | viability at 0.01 µM (HepG2 [14]): 91.2% | IC50 (Tubulin): 1.88 µM | Activity (HepG2 [15]): 25.06% | Activity (HepG2 [16]): 5.34% | Activity (HepG2 [17]): 2.52% | IC50 (A549): 0.07 µM | Activity (HepG2 [18]): 1.92% | Activity (HepG2 [19]): 1.75% | Activity (HepG2 [20]): 34.65% | IC50 (MCF7): 0.05 µM | Activity (HepG2 [21]): 50.11% | Activity (HepG2 [22]): 52.2%

COc1cccc(C2=NN(C(=O)c3ccc(Br)cc3)C(c3ccc4c(c3)OCO4)C2)c1 (centres undefined)
IC50 (HepG2 [11]): > 10 µM | IC50 (Tubulin): > 40 µM | IC50 (A549): > 10 µM | IC50 (MCF7): > 10 µM

COc1cc(C(=O)N2N=C(c3ccccc3)CC2c2ccc3c(c2)OCO3)cc(OC)c1OC (centres undefined)
IC50 (HepG2 [11]): 2.24 µM | IC50 (Tubulin): 15.63 µM | IC50 (A549): 2.19 µM | IC50 (MCF7): 3.38 µM

COc1cc(C(=O)N2N=C(c3ccc(Br)cc3)CC2c2ccc3c(c2)OCO3)cc(OC)c1OC (centres undefined)
IC50 (HepG2 [11]): 5.25 µM | IC50 (Tubulin): 19.45 µM | IC50 (A549): 4.21 µM | IC50 (MCF7): 6.37 µM

COc1ccc(C2=NN(C(=O)c3ccc(OC)c(OC)c3)C(c3ccc4c(c3)OCO4)C2)cc1 (centres undefined)
IC50 (HepG2 [11]): 3.77 µM | IC50 (Tubulin): 15.73 µM | IC50 (A549): 2.73 µM | IC50 (MCF7): 3.56 µM

COc1cccc(C2=NN(C(=O)c3cc(OC)c(OC)c(OC)c3)C(c3ccc4c(c3)OCO4)C2)c1 (centres undefined)
IC50 (HepG2 [11]): 0.07 µM | IC50 (Tubulin): 1.91 µM | IC50 (A549): 0.09 µM | IC50 (MCF7): 0.06 µM

COc1ccc(C(=O)N2N=C(c3ccc(OC)cc3)CC2c2ccc3c(c2)OCO3)cc1 (centres undefined)
IC50 (HepG2 [11]): 5.05 µM | IC50 (Tubulin): 25.79 µM | IC50 (A549): 4.08 µM | IC50 (MCF7): 6.41 µM

COc1cc(C(=O)N2N=C(c3ccc(Cl)cc3)CC2c2ccc3c(c2)OCO3)cc(OC)c1OC (centres undefined)
IC50 (HepG2 [11]): 3.16 µM | IC50 (Tubulin): 18.02 µM | IC50 (A549): 3.08 µM | IC50 (MCF7): 4.26 µM

Cc1cccc(C2=NN(C(=O)c3ccc(Br)cc3)C(c3ccc4c(c3)OCO4)C2)c1 (centres undefined)
IC50 (HepG2 [11]): > 10 µM | IC50 (Tubulin): > 40 µM | IC50 (A549): > 10 µM | IC50 (MCF7): > 10 µM

COc1cc(C(=O)N2N=C(c3cc(OC)c(OC)c(OC)c3)CC2c2ccc3c(c2)OCO3)cc(OC)c1OC (centres undefined)
IC50 (HepG2 [11]): 3.15 µM | IC50 (Tubulin): 11.37 µM | IC50 (A549): 2.23 µM | IC50 (MCF7): 3.26 µM

O=C(c1ccc(Br)cc1)N1N=C(c2ccc(Br)cc2)CC1c1ccc2c(c1)OCO2 (centres undefined)
IC50 (HepG2 [11]): > 10 µM | IC50 (Tubulin): > 40 µM | IC50 (A549): > 10 µM | IC50 (MCF7): > 10 µM

COc1ccccc1C1=NN(C(=O)c2ccc(Br)cc2)C(c2ccc3c(c2)OCO3)C1 (centres undefined)
IC50 (HepG2 [11]): > 10 µM | IC50 (Tubulin): > 40 µM | IC50 (A549): > 10 µM | IC50 (MCF7): > 10 µM

COc1cc(C(=O)N2N=C(c3cccc(Cl)c3)CC2c2ccc3c(c2)OCO3)cc(OC)c1OC (centres undefined)
IC50 (HepG2 [11]): 7.15 µM | IC50 (Tubulin): > 40 µM | IC50 (A549): 7.11 µM | IC50 (MCF7): 9.23 µM

COc1ccc(C2=NN(C(=O)c3ccc(Cl)cc3)C(c3ccc4c(c3)OCO4)C2)cc1 (centres undefined)
IC50 (HepG2 [11]): 8.38 µM | IC50 (Tubulin): > 40 µM | IC50 (A549): 7.14 µM | IC50 (MCF7): 8.66 µM

COc1cc(C2=NN(C(=O)c3ccc(Br)cc3)C(c3ccc4c(c3)OCO4)C2)cc(OC)c1OC (centres undefined)
IC50 (HepG2 [11]): 6.22 µM | IC50 (Tubulin): 25.06 µM | IC50 (A549): 4.16 µM | IC50 (MCF7): 5.26 µM

O=C(c1ccc(Br)cc1)N1N=C(c2ccc(Cl)cc2)CC1c1ccc2c(c1)OCO2 (centres undefined)
IC50 (HepG2 [11]): > 10 µM | IC50 (Tubulin): > 40 µM | IC50 (A549): > 10 µM | IC50 (MCF7): > 10 µM

O=C(c1ccc(Br)cc1)N1N=C(c2ccc(F)cc2)CC1c1ccc2c(c1)OCO2 (centres undefined)
IC50 (HepG2 [11]): > 10 µM | IC50 (Tubulin): > 40 µM | IC50 (A549): 2.45 µM | IC50 (MCF7): 5.11 µM
